# Assays:
# MT4 = test: Cytotoxicity against MT4 cells; format: functional; settings: Homo sapiens
# [1] = target: Human immunodeficiency virus type 1 integrase (Human immunodeficiency virus 1, UniProt Q7ZJM1); test: Inhibition of strand transfer activity in HIV1 integrase
# [2] = system: Human immunodeficiency virus 1; test: Antiviral activity against HIV1 3B in MT4 cells; format: functional, organism-based; settings: Human immunodeficiency virus 1, 3B
# Sequence of Human immunodeficiency virus type 1 integrase (Q7ZJM1 whole entry): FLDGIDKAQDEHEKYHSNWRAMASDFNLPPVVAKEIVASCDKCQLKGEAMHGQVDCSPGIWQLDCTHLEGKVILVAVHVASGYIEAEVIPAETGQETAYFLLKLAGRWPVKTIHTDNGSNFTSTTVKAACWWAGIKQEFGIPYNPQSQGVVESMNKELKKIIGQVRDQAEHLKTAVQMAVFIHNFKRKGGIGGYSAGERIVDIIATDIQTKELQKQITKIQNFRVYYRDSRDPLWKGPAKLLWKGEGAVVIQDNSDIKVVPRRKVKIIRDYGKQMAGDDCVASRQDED
SMILES,CC50 (MT4) [nM],IC50 [1] [nM],EC50 [2] [nM],IC50 [2] [nM]
COc1cnc2c(O)c3c(c(OC)c2c1)CN(Cc1ccc(F)cc1)C3=O,2100,93,70,
CN(C)S(=O)(=O)Oc1c2c(c(O)c3nccnc13)C(=O)N(Cc1ccc(F)cc1)C2,2700,33,540,
COc1c2c(c(O)c3ncccc13)C(=O)N(Cc1ccc(F)cc1)C2,5100,,,
COc1c2c(c(O)c3ncc(F)cc13)C(=O)N(Cc1ccc(F)cc1)C2,33300,7.2,,1540
CN(C)S(=O)(=O)Oc1c2c(c(O)c3ncccc13)C(=O)N(Cc1ccc(F)cc1)C2,1400,,7,
COc1c2c(c(O)c3nccnc13)C(=O)N(Cc1ccc(F)cc1)C2,87000,210,3550,
COc1c2c(c(O)c3c1NCCN3)C(=O)N(Cc1ccc(F)cc1)C2,,850,,> 10000
COc1c2c(c(O)c3ncn(Cc4ccccc4)c13)C(=O)N(Cc1ccc(F)cc1)C2,25000,24000,,> 10000

# Source: ChEMBL document CHEMBL1138967, “Design, synthesis, and biological evaluation of novel tricyclic HIV-1 integrase inhibitors by modification of its pyridine ring” (Bioorg Med Chem Lett, 2006)
